The results in this text go back to ChEMBL document CHEMBL3045291, “Synthesis and evaluation of new potent inhibitors of CK1 and CDK5, two kinases involved in Alzheimers disease” (Med Chem Res, 2013).

The target in assay [1] is Casein kinase 1, delta tv1 (Sus scrofa, UniProt M3VH47). As to the kind of experiment: Inhibition of Sus scrofa (pig) casein kinase 1delta/epsilon isolated from brain using RRKHAAIGpSAYSITA and [gamma33P]ATP as substrate after 30 min by scintillation counting.
Assay [2] deals with Cyclin-dependent kinase 5/CDK5 activator 1 (Homo sapiens, UniProt Q00535). As to the kind of experiment: Inhibition of human recombinant CDK5/p25 using histone H1 and [gamma33P]ATP as substrate after 30 min by scintillation counting. In kind it is protein-complex assay.
Assay [3] concerns the target Cyclin-dependent kinase 2/cyclin A (Homo sapiens, UniProt P24941). As to the kind of experiment: Inhibition of human recombinant CDK2/cyclin A using histone H1 and [gamma33P]ATP as substrate after 30 min by scintillation counting. The format is protein-complex assay.
Assay [4] addresses T1, G2/mitotic-specific cyclin-B (Asterina pectinifera, UniProt P18063).
T1 sequence (P18063 whole entry): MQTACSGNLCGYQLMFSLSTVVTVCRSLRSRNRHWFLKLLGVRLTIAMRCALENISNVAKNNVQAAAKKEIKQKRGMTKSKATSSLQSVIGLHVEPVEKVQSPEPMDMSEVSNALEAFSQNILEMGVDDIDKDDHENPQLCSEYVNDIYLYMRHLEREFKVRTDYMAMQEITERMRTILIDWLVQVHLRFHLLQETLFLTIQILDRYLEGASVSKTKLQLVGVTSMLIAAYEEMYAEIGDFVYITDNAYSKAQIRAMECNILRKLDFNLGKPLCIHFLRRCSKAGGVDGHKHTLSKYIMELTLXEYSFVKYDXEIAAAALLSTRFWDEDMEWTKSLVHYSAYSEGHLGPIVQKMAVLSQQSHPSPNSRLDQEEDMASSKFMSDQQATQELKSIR
Nature of the assay: Inhibition of Asteroidea (starfish) Cyclin-dependent kinase 1/cyclin B isolated from oocyte using histone H1 and [gamma33P]ATP as substrate after 30 min by scintillation counting.

Assay [5] concerns the target Dual specificity tyrosine-phosphorylation-regulated kinase 1A (Homo sapiens, UniProt Q13627). Nature of the assay: Inhibition of Homo sapiens (human) recombinant GST-tagged DYRK1A expressed in Escherichia coli using KKISGRLSPIMTEQ and [gamma33P]ATP as substrate after 30 min by scintillation counting.
In assay [6] the target is Glycogen synthase kinase-3 (Sus scrofa, UniProt B2LUN4+I6LNT8). Nature of the assay: Inhibition of Sus scrofa (pig) glycogen synthase kinase 3alpha/beta isolated from brain using YRRAAVPPSPSLSRHSSPHQpSEDEEE and [gamma33P]ATP as substrate after 30 min by liquid scintillation counting.
Assay [7] deals with Cyclin-dependent kinase 5 (Homo sapiens, UniProt Q00535). Nature of the assay: Inhibition of CDK5 (unknown origin).
Chain of Cyclin-dependent kinase 5 (Q00535 whole entry): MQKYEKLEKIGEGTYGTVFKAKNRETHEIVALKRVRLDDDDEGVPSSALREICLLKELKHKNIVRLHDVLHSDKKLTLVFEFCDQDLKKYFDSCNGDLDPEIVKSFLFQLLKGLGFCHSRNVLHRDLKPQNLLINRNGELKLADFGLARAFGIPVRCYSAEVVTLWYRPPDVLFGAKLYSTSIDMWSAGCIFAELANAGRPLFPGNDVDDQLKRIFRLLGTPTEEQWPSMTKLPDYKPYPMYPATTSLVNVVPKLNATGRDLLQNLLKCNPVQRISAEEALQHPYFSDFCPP

Chain of Casein kinase 1, delta tv1 (M3VH47 whole entry): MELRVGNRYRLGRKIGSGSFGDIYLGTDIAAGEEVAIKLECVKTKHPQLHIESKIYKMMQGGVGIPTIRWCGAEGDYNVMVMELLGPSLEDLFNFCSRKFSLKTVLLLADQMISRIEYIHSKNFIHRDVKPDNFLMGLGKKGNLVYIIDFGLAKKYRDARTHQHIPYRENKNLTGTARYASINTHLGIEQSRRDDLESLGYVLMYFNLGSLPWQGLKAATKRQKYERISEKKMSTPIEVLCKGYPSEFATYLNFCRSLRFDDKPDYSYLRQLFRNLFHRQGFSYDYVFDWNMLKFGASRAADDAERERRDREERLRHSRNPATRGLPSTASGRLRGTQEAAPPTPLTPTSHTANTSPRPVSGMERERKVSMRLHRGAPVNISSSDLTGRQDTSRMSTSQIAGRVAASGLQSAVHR
Chain of Cyclin-dependent kinase 5/CDK5 activator 1 (Q00535 whole entry): as the sequence (Q00535 whole entry) above
Chain of Cyclin-dependent kinase 5/CDK5 activator 1 (Q15078 whole entry, further chain): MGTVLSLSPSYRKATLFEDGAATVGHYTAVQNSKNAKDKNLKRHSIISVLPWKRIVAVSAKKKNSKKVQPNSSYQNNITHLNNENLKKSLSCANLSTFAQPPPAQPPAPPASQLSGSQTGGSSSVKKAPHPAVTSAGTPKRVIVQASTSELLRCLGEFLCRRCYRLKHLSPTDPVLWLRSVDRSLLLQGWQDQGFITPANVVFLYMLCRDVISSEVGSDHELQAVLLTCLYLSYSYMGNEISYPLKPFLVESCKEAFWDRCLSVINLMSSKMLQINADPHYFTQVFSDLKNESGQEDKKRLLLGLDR

For orientation: IC50 means the concentration that gives 50% inhibition. Turning to `CC(C)n1cnc2c(Nc3cccc(-c4ncccn4)c3)nc(Cl)nc21`, the IC50 in assay [1] was 60 nM; in assay [2], 1900 nM; in assay [3], 1900 nM; in assay [4], 10000 nM; in assay [5], > 10000 nM; in assay [6] it was > 10000 nM.
Turning to `CC(C)n1cnc2c(Nc3cccc(-c4cncnc4)c3)nc(NC(C)(C)CO)nc21`, the 50% inhibitory concentration (IC50) in assay [1] was determined as 320 nM; in assay [2], 110 nM; in assay [3] it was 110 nM.
Turning to `CC(C)n1cnc2c(Nc3cccc(-c4ncccn4)c3)nc(NC(CO)CO)nc21`, the values for the 50% inhibitory concentration (IC50) in assay [1] and in assay [2] were 70 nM and 620 nM, respectively.
Take `CC(C)n1cnc2c(Nc3cccc(-c4ncccn4)c3)nc(NC(C)(C)CO)nc21`: the IC50 in assay [1] was determined as 50 nM; in assay [2], 110 nM.
As to `CC(C)n1cnc2c(Nc3ccc(-c4cncnc4)cc3)nc(NC(C)(C)CO)nc21`, the figures for the IC50 in assay [1], in assay [2] and in assay [3] were 500 nM, 110 nM and 200 nM, respectively.
`CC(C)n1cnc2c(Nc3ccc(-c4cncnc4)cc3)nc(Cl)nc21`: the half-maximal inhibitory concentration (IC50) in assay [1] was 410 nM; in assay [2], 2100 nM; in assay [3] it was 1100 nM; in assay [6] it was > 10000 nM.
`NC1=NC(=O)/C(=C2\CCNC(=O)c3[nH]c(Br)cc32)N1` [HYMENIALDISINE] yielded an IC50 in assay [7] of 30 nM.
In the case of `CC(C)n1cnc2c(Nc3ccc(-c4cncnc4)cc3)nc(NC(CO)CO)nc21`, the figures for the half-inhibitory concentration (IC50) in assay [1], in assay [2] and in assay [3] were 640 nM, 190 nM and 330 nM, respectively.
On to `CC(C)n1cnc2c(Nc3cccc(-c4cncnc4)c3)nc(Cl)nc21`, for which the half-maximal inhibitory concentration (IC50) in assay [1] is 380 nM; in assay [2], 1000 nM; in assay [6], > 10000 nM.
